Data on four sequences can be found in US8685925B2, “Method and compositions for treating stroke with fever” (Nono Inc., priority 2006, dated 2014).

Like-named read-outs stand apart in the source and are kept apart here. No end group written: not given here.

Data set [1] deals with PSD-95 (Homo sapiens, UniProt P78352). The following applies: Kornau, 1995; Aarts, 2002; cited from earlier work.
Data set [2] concerns Sprague-Dawley rats. Briefly: Physiological parameters in the pMCAO studies (body weight, MABP, blood gases, pH). The format is in vivo, rat. The following applies: for pH: arterial blood; for pH / MABP / pCO2 / pO2: first line, time not given. How it is done: (§1) Each animal was weighed and then anesthesia was induced. For the permanent pial vessel occlusion model, rats were anesthetized with ketamine (100 mg/kg), acepromazine (2 mg/kg), and xylazine (50 mg/kg), supplemented with one third the initial dose as required. For the two permanent middle cerebral artery occlusion (pMCAO) studies, anesthesia was induced with 3.5% halothane in a mixture of nitrous oxide and oxygen (Vol. 2:1) and maintained with 0.8% halothane in the mixture. Rats were endotracheally intubated and mechanically ventilated (60 strokes/min, tidal volume of […]). A rectal temperature probe was inserted. Polyethylene catheters (PE-50) were introduced into the left femoral artery and vein for blood pressure recording, blood sampling, and drug injection. Mean arterial blood pressure was measured with the use of an indwelling femoral arterial catheter connected to a pressure transducer and was recorded continuously. Serial measurements were made of arterial blood gases, pH, and blood glucose.

The subject of data set [3] is Sprague-Dawley rats. In kind it is in vivo, rat. As to the method:
(§2) The peptides were prepared daily from lyophilized powder by dissolving them in normal saline to the final desired concentration. They were administered intravenously via a slow (4-5 min) injection by individuals blinded to the treatment group.
(§3) Experiments were performed in male adult Sprague-Dawley rats weighing 250-300 g (Charles River Laboratory, Canada). All procedures conformed to guidelines established by the Canadian Council on Animal Care and with the approval of the University Health Network animal care committee. All animals were housed in groups of 1-2 animals in cages with free access to food and water and in rooms having an ambient temperature of 20±1° C. and 12:12 hr light/dark cycle.
as §1
The left middle cerebral artery was occluded by the intraluminal suture method described by Longa (1989). In brief, the left common carotid artery (CCA) was exposed through a midline neck incision and was dissected free from surrounding nerves and fascia, from its bifurcation to the base of the skull. The occipital artery branches of the external carotid artery (ECA) were then isolated, and these branches were dissected and coagulated. The ECA was dissected further distally and coagulated along with the terminal lingual and maxillary artery branches, which were then divided. The internal carotid artery (ICA) was isolated and carefully separated from the adjacent vagus nerve, and the pterygopalatine artery was ligated close to its origin. The tip of a 4-cm length of 3-0 monofilament nylon suture (Harvard Apparatus) was rounded by burning to achieve a tip diameter of 0.33-0.36 mm and tip length of 0.5-0.6 mm and coated with poly-L-lysine (Belayev et al., 1996). The suture was introduced through the CCA and advanced into the ICA and thence into the circle of Willis (about 18-20 mm from the carotid bifurcation), effectively occluding the middle cerebral artery. The silk suture around the CCA was tightened around the intraluminal nylon suture to secure it and permanently occlude the middle cerebral artery. Sham operated animals underwent the identical surgical procedure, including permanent ligation of the CCA, but without suture insertion to occlude the MCA. The pMCAO procedure was considered to be adequate if the animal's neurobehavioral score (below) exceeded 10 at 2 h after pMCAO. Animals were allowed to recover from anesthesia at room temperature.
At 24 h after pMCAO the animals were deeply anaesthetized employing halothane inhalation and the brains were quickly removed, sliced into 8 standard coronal sections, and incubated for 30 min in 2% triphenyltetrazolium chloride (TTC; Sigma, St. Louis, USA) in saline at 37° C. […] Each section was digitally photographed, and the infarcts were then traced onto templates representing the 8 standardized coronal slices. The use of the templates corrects for any brain edema produced by the infarct, allowing for a more accurate determination of infarct volume. […]

Data set [4] deals with Sprague-Dawley rats. In kind it is in vivo, rat. The following applies: pial vessel occlusion study. How it is done: as §2, §3
Each animal was weighed and then anesthesia was induced. For the permanent pial vessel occlusion model, rats were anesthetized with ketamine (100 mg/kg), acepromazine (2 mg/kg), and xylazine (50 mg/kg), supplemented with one third the initial dose as required. For the two permanent middle cerebral artery occlusion (pMCAO) studies, anesthesia was induced with 3.5% halothane in a mixture of nitrous oxide and oxygen (Vol. 2:1) and maintained with 0.8% halothane in the mixture. […] Mean arterial blood pressure was measured with the use of an indwelling femoral arterial catheter connected to a pressure transducer and was recorded continuously. […]

Data set [5] relates to Sprague-Dawley rats. In words: Core temperature after sham procedure with peptide injection. The format is in vivo, rat. The settings on record: single i.v. injection of 3 nMole/g. As to the method:
A day prior to undergoing ischemia, the animals were implanted with intraperitoneal transmitters (E-Mitter; Mini Mitter/Respironics, Oregon, USA) permitting core temperature (CT) and activity monitoring. Monitoring was performed continuously from 20 hours before, to 24 hours after, the pMCAO (Mini-Mitter VitalView telemetric monitoring software; Mini Mitter/Respironics, Oregon, USA). During the animal surgery the animals were away from the telemetric receivers, so CT was measured with a rectal probe and maintained at 36.5° C. to 37.5° C. using a heating lamp or homeothermic blanket. […] Temporalis muscle temperatures were measured with the same thermocouple probe inserted into the muscle through an 18 gauge needle. Cage temperatures were continuously recorded using an external temperature probe and software (Tektronix WaveStar software; Tektronix, Texas, USA) running on a digital oscilloscope and a separate computer. […]
Previous experience has shown that the neuroprotective effects of some anti-ischemic drugs might have been, at least in part, related to drug-induced hypothermia (e.g., MK-801; Corbett, 1990). […] To determine whether PSD-95 inhibition affected core temperature (CT), it was measured in rats (n=6) implanted with telemetric intra-peritoneal temperature monitors. […]

PSD-95, sequence (P78352 whole entry, species assumed): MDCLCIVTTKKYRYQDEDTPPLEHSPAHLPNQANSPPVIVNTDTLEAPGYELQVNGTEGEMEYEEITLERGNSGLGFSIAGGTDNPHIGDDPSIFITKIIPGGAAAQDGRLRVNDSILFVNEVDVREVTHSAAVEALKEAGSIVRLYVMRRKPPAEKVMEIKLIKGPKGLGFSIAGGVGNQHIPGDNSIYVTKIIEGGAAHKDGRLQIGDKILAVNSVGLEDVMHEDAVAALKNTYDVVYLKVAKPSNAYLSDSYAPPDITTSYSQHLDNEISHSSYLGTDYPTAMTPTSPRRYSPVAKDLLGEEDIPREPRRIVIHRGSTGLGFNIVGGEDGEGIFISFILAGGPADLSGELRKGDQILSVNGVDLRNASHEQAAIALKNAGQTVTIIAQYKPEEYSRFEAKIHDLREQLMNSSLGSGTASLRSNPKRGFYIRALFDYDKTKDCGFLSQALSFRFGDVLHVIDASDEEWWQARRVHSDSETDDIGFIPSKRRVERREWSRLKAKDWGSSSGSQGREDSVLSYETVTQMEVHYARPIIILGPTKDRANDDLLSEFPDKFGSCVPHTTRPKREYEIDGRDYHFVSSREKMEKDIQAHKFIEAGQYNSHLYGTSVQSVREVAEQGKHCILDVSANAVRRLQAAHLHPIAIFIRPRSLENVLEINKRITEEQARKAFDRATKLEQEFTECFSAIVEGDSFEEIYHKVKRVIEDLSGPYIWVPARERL

In the case of “KLSSIEADA [NR2B(ADA), reference compound]”, in data set [1], the “binding to PSD-95” value is reported as “incapable of binding PSD-95”.

On to YGRKKRRQRRRKLSSIETDV [Tat-NR2B9c(TDV)], for which, in data set [2] (1st study, 0.3 nmol/g), the “MABP 10 min” value is recorded as 121.44 ± 5.23 mmHg, the “pCO2 10 min” value is 39.33 ± 0.73 mmHg, the “pH 10 min” value was determined as 7.44 ± 0.01 and the “pO2 10 min” value was 124.22 ± 6.34 mmHg. For the same sequence, in data set [2] (1st study, 0.3 nmol/g), the “MABP 70 min” value turned out to be 129.44 ± 6.54 mmHg, the “pCO2 70 min” value came out at 38.67 ± 0.93 mmHg, the “pH 70 min” value worked out at 7.41 ± 0.01 and the “pO2 70 min” value was 137.67 ± 4.75 mmHg. Moreover, in data set [2] (1st study, 0.3 nmol/g), the pH is listed as 7.42 ± 0.02, the MABP was determined as 126.00 ± 5.54 mmHg, the pCO2 amounted to 38.11 ± 0.81 mmHg and the pO2 is on record as 131.44 ± 9.11 mmHg. For the same sequence, in data set [2] (1st study, 3 nmol/g), the “MABP 10 min” value is given as 140.63 ± 7.64 mmHg, the “pCO2 10 min” value is reported as 40.25 ± 0.99 mmHg, the “pH 10 min” value worked out at 7.43 ± 0.01 and the “pO2 10 min” value is listed as 136.00 ± 2.57 mmHg. In data set [2] (1st study, 3 nmol/g), the “MABP 70 min” value is 102.13 ± 2.39 mmHg, the “pCO2 70 min” value is on record as 40.38 ± 0.84 mmHg, the “pH 70 min” value was 7.40 ± 0.01 and the “pO2 70 min” value came out at 132.25 ± 4.65 mmHg. In data set [2] (1st study, 3 nmol/g), this sequence showed a pH of 7.44 ± 0.01, an MABP of 123.63 ± 6.27 mmHg, a pCO2 of 39.75 ± 0.70 mmHg and a pO2 of 130.63 ± 6.24 mmHg. Moreover, in data set [2] (2nd study, 0.3 nmol/g), the “MABP 10 min” value was 140.50 ± 4.69 mmHg, the “pCO2 10 min” value turned out to be 42.75 ± 0.59 mmHg, the “pH 10 min” value was 7.38 ± 0.01 and the “pO2 10 min” value is 132.00 ± 4.92 mmHg. In addition, in data set [2] (2nd study, 0.3 nmol/g), the “MABP 70 min” value came to 129.25 ± 8.09 mmHg, the “pCO2 70 min” value was 41.75 ± 1.13 mmHg, the “pH 70 min” value is 7.41 ± 0.01 and the “pO2 70 min” value is listed as 121.00 ± 4.39 mmHg. Moreover, in data set [2] (2nd study, 0.3 nmol/g), the pH turned out to be 7.38 ± 0.02, the MABP worked out at 119.00 ± 4.11 mmHg, the pCO2 amounted to 39.25 ± 1.06 mmHg and the pO2 is recorded as 133.13 ± 5.15 mmHg. In data set [2] (2nd study, 3 nmol/g), the “pCO2 10 min” value is reported as 37.50 ± 0.80 mmHg, the “pH 10 min” value came to 7.38 ± 0.02, the “pO2 10 min” value worked out at 120.13 ± 6.53 mmHg and the “MABP 70 min” value amounted to 130.25 ± 12.26 mmHg. In addition, in data set [2] (2nd study, 3 nmol/g), the “pCO2 70 min” value stood at 40.88 ± 1.42 mmHg, the “pH 70 min” value is listed as 7.39 ± 0.02, the “pO2 70 min” value is reported as 124.63 ± 4.44 mmHg and the pH is on record as 7.41 ± 0.01. In addition, in data set [2] (2nd study, 3 nmol/g), the MABP is reported as 124.13 ± 6.29 mmHg, the pCO2 is on record as 38.63 ± 1.05 mmHg and the pO2 worked out at 141.13 ± 10.44 mmHg. The “Post-op Deaths” value in data set [3] (pMCAO study #1, 0.3 nMole/g) turned out to be 0. The “Post-op Deaths” value in data set [3] (pMCAO study #1, 3.0 nMole/g) was found to be 0. The “Post-op Deaths” value in data set [3] (pMCAO study #2, 0.3 nMole/g) was determined as 2. The “Post-op Deaths” value in data set [3] (pMCAO study #2, 3.0 nMole/g) amounted to 3.

Regarding “KLSSIETDV (PL protein motif) [NR2B9c(TDA)]”, in data set [1], the “binding to PSD-95” value is reported as “interacts with the PDZ2 domain of PSD-9S”.

For YGRKKRRQRRRKLSSIESDV [Tat-NR2B9c(SDV)], the “Post-op Deaths” value is recorded as 0 in data set [4] (0.3 nMole/g); 0 in data set [4] (3.0 nMole/g); 1/1 in data set [3] (pMCAO study #1, 0.3 nMole/g); 1 in data set [3] (pMCAO study #1, 3.0 nMole/g); 1/1 in data set [3] (pMCAO study #2, 0.3 nMole/g). For the same sequence, the “difference in core temperature versus sham (vehicle) animals” value in data set [5] (20 h before until 24 h after) is “no differences in CT at any time point”. The “increase in core temperature after termination of anesthesia” value in data set [5] (no ischemia, n=6) was roughly 0.5 °C.
